Our source for the IC50 and GI50 values is ChEMBL document CHEMBL6127100, “Plant based steroidal and triterpenoid sapogenins: Chemistry on diosgenin and biological aspects” (Eur J Med Chem, 2024).

pIC50: −log10 of the molar value.

In test [1] the test system is A549. Kind of test: Anticancer activity against human A549 cells assessed as inhibition of cell growth incubated for 48 hrs by MTT assay. Type of test: functional, cell-based. The following applies: A549, 48 h.
A further test deals with PC-9. Kind of test: Anticancer activity against human PC-9 cells assessed as inhibition of cell growth incubated for 48 hrs by MTT assay. The following applies: PC-9, 48 h. It counts as functional, cell-based.
Test [2] deals with HeLa. Kind of test: Antiproliferative activity against human HeLa cells assessed as reduction in cell growth. Type of test: functional, cell-based.
For another test, the system named is BT-474. Kind of test: Cytotoxicity against human BT-474 cells. Type of test: functional, cell-based.
Test [3] deals with U-937. Kind of test: Cytotoxicity against human U-937 cells. It counts as functional, cell-based.
The subject of another test is CCRF-CEM. Kind of test: Cytotoxicity against human CCRF-CEM cells. It counts as functional, cell-based.
A further test has as its system DU-145. Kind of test: Cytotoxicity against human DU-145 cells. It counts as functional, cell-based.
For test [4], the system named is MDA-MB-231. Kind of test: Cytotoxicity against human MDA-MB-231 cells. Type of test: functional, cell-based.
A further test has as its system T98G. Kind of test: Antiproliferative activity against human T98G cells assessed as inhibition of cell growth incubated for 72 hrs by celltiter-glo assay. Type of test: functional, cell-based.
In test [5] the test system is HeLa. Kind of test: Growth inhibition of human HeLa cells. It counts as functional.
Test [6] has as its system HepG2. Kind of test: Antiproliferative activity against human HepG2 cells assessed as reduction in cell growth. Type of test: functional, cell-based.
The test system of test [7] is U-937. Kind of test: Antiproliferative activity against human U-937 cells assessed as inhibition of cell growth incubated for 72 hrs by cell-titer glo assay. Type of test: functional, cell-based. To be noted: U-937, 72 h.
For test [8], the system named is Ca-Ski. Kind of test: Cytotoxicity against human Ca-Ski cells. It counts as functional, cell-based.
Test [9] concerns HeLa. Kind of test: Cytotoxicity against human HeLa cells. It counts as functional, cell-based.
In the next test the test system is HBL. Kind of test: Antiproliferative activity against human HBL cells assessed as inhibition of cell growth incubated for 48 hrs by tryphan blue dye based assay. Type of test: functional.
Test [10] concerns A549. Kind of test: Antiproliferative activity against human A549 cells assessed as inhibition of cell growth incubated for 48 hrs by tryphan blue dye based assay. To be noted: A549, 48 h. Type of test: functional.
In a further test the test system is T47D. Kind of test: Antiproliferative activity against human T47D cells assessed as inhibition of cell growth incubated for 48 hrs by tryphan blue dye based assay. It counts as functional.
The next test relates to WiDr. Kind of test: Antiproliferative activity against human WiDr cells assessed as inhibition of cell growth incubated for 48 hrs by tryphan blue dye based assay. It counts as functional.
Test [11] relates to HeLa. Kind of test: Antiproliferative activity against human HeLa cells assessed as inhibition of cell growth incubated for 48 hrs by tryphan blue dye based assay. Type of test: functional.
A further test deals with SW1573. Kind of test: Antiproliferative activity against human SW1573 cells assessed as inhibition of cell growth incubated for 48 hrs by tryphan blue dye based assay. It counts as functional. The following applies: SW1573, 48 h.
Test [12] relates to HeLa. Kind of test: Antiproliferative activity against human HeLa cells assessed as reduction in cell growth after 48 hrs by MTT assay. Type of test: functional, cell-based.
Test [13] concerns Ca-Ski. Kind of test: Antiproliferative activity against human Ca-Ski cells assessed as reduction in cell growth after 48 hrs by MTT assay. Type of test: functional, cell-based.
The test system of test [14] is HepG2. Kind of test: Cytotoxicity against human HepG2 cells assessed as reduction in cell viability incubated for 24 hrs by MTT assay. To be noted: HepG2, 24 h. Type of test: functional, cell-based.
Test [15] has as its system MDA-MB-231. Kind of test: Cytotoxicity against human MDA-MB-231 cells assessed as reduction in cell growth incubated for 48 hrs by MTT assay. Type of test: functional, cell-based. To be noted: MDA-MB-231, 48 h.
In test [16] the test system is HeLa. Kind of test: Cytotoxicity against human HeLa cells assessed as reduction in cell growth incubated for 48 hrs by MTT assay. Type of test: functional, cell-based.
Another test relates to HuCC-A1. Kind of test: Cytotoxicity against human HuCC-A1 cells assessed as reduction in cell growth incubated for 3 days by micro-titer plate reader analysis. It counts as functional, cell-based. The following applies: HuCC-A1, 72 h.
The next test has as its system KB. Kind of test: Cytotoxicity against human KB cells assessed as reduction in cell growth incubated for 3 days by micro-titer plate reader analysis. Type of test: functional, cell-based. To be noted: 72 h.

`C[C@@H]1CC[C@@]2(OC1)O[C@H]1C[C@H]3[C@@H]4CCC5(OC#N)C[C@@H](O)CC[C@]5(C)[C@H]4CC[C@]3(C)[C@H]1[C@@H]2C` (some centres undefined): the negative-log IC50 (pIC50) in the test with A549 [1] was 5.29; with PC-9, 5.06.

With `Cc1ccc2c(n1)C(=O)C(Cl)C(O[C@H]1CC[C@@]3(C)C(=CC[C@H]4[C@@H]5C[C@@H]6O[C@]7(CC[C@@H](C)CO7)[C@@H](C)[C@@H]6[C@@]5(C)CC[C@@H]43)C1)C2=O` (some centres undefined), the negative-log IC50 (pIC50) with HeLa [2] is 4.80.

Take `C[C@@H]1CC[C@@]2(OC1)O[C@H]1C[C@H]3[C@@H]4CC(n5cc(-c6ccc(F)cc6)nn5)C5(O)C[C@@H](O)CC[C@]5(C)[C@H]4CC[C@]3(C)[C@H]1[C@@H]2C` (some centres undefined): the negative logarithm of the IC50 (pIC50) was 5.41 with BT-474; 5.15 in the test on U-937 [3]; 5.26 with CCRF-CEM; 5.00 in the test with DU-145; 5.15 with MDA-MB-231 [4]; 5.05 in the test on T98G.

For the molecule `CC(=O)O[C@@H]1C=C2/C(=N/O)C[C@H]3[C@@H]4C[C@@H]5OC(=O)[C@@H](C)[C@@H]5[C@@]4(C)CC[C@@H]3[C@@]2(C)CC1`, the negative-log IC50 (pIC50) in the test on BT-474 is 4.85; in the test with DU-145, 5.11. Also, the concentration for 50% growth inhibition (GI50) in the test with HeLa [5] stood at 17 µM.

With `C[C@@H]1CC[C@@]2(OC1)O[C@H]1C[C@H]3[C@@H]4CC=C5C[C@@H](OC6=C(Cl)C(=O)c7ccccc7C6=O)CC[C@]5(C)[C@H]4CC[C@]3(C)[C@H]1[C@@H]2C`, the negative-log IC50 (pIC50) in the test with HepG2 [6] was 4.76.

For the molecule `C[C@@H]1CC[C@@]2(OC1)O[C@H]1C[C@H]3[C@@H]4CC(n5cc(-c6ccccc6)nn5)C5(O)C[C@@H](O)CC[C@]5(C)[C@H]4CC[C@]3(C)[C@H]1[C@@H]2C` (some centres undefined), the pIC50 in the test with BT-474 is 4.88; in the test with U-937 [3] it was 5.10; with CCRF-CEM, 5.41; in the test with DU-145, 5.10; in the test with MDA-MB-231 [4], 5.48; in the test on U-937 [7] it was 5.09.

For `CC(=O)O[C@@H]1C=C2CC[C@H]3[C@@H]4C[C@@H]5O[C@@]6(OC[C@H](C)CC6/C(C)=N\O)[C@@H](C)[C@@H]5[C@@]4(C)CC[C@@H]3[C@@]2(C)CC1` (some centres undefined), the pIC50 in the test with Ca-Ski [8] was 5.27; in the test with HeLa [9], 5.25.

With `CC(CCC[C@H](C)[C@H]1[C@@H](O)C[C@H]2[C@@H]3CC=C4C[C@@H](O)CC[C@]4(C)[C@H]3CC[C@]12C)C[Se]C#N` (some centres undefined), the pIC50 with HBL was 5.66; with A549 [10] it was 5.77; in the test with T47D, 5.49; with WiDr, 5.26; in the test on HeLa [11] it was 5.48; with SW1573, 5.66.

On to `C[C@@H]1CC[C@@]2(OC1)O[C@H]1C[C@H]3[C@@H]4CC=C5C[C@@H](O[C@@H]6O[C@H](CO)[C@@H](O)[C@H](O)[C@H]6O)CC[C@]5(C)[C@H]4CC[C@]3(C)[C@H]1[C@@H]2C` [DISOGLUSIDE], for which the pIC50 is 4.41 in the test on HeLa [12] and 4.39 in the test on Ca-Ski [13].

As to `C[C@@H]1CC[C@@]2(OC1)O[C@H]1C[C@H]3[C@@H]4CC=C5C[C@@H](O[C@@H]6O[C@H](CO)[C@@H](O[C@@H]7O[C@@H](C)[C@H](O)[C@@H](O)[C@H]7O)[C@H](O)[C@H]6O[C@@H]6O[C@@H](C)[C@H](O)[C@@H](O)[C@H]6O)CC[C@]5(C)[C@H]4CC[C@]3(C)[C@H]1[C@@H]2C` [DIOSCIN], the pIC50 is 5.51 with HepG2 [14]; 5.77 in the test with MDA-MB-231 [15]; 5.44 with HeLa [16]; 5.70 in the test with HeLa [12]; 5.08 in the test on HuCC-A1; 5.21 with KB. Moreover, the negative logarithm of the IC50 (pIC50) in the test on Ca-Ski [13] was 5.70.

In the case of `COc1cc(-c2cn(C3C[C@H]4[C@@H]5C[C@@H]6O[C@]7(CC[C@@H](C)CO7)[C@@H](C)[C@@H]6[C@@]5(C)CC[C@@H]4[C@@]4(C)CC[C@H](O)CC34O)nn2)cc(OC)c1OC` (some centres undefined), the pIC50 in the test with U-937 [3] was 5.26; with CCRF-CEM, 5.20; in the test on MDA-MB-231 [4], 4.79.
